Literature values, collected in patent US20010053381A1, “System and method for treating kidney diseases in diabetic and non-diabetic patients” (priority 2000, published 2001).

Tests used:
[1] = system: patients with type 1 DM and diabetic nephropathy

Substance: insulin [CIIIT]
- blood pressure control (patients with type 1 DM): improve blood pressure control substantially
- reduction of antihypertensive medication requirements (patients with type 1 DM): 46%
- progression of overt diabetic nephropathy ([1]; 37 months, type 1 DM patients): arrest or appreciably reduce the progression
- Creatinine clearance at baseline ([1]; baseline, 31 patients with type 1 DM and diabetic nephropathy): 46.1 ± 3.0 mL/min
- Creatinine clearance at the end of the observation period ([1]; end of observation period (37 months), 31 patients with type 1 DM and diabetic nephropathy): 46.0 ± 3.9 mL/min
- hemoglobin Alc levels, after study period ([1]; value after decline during the study period, P=0.0062): 7.6±0.3%
- hemoglobin Alc levels, start of study period ([1]; value before decline, patients with type 1 DM and diabetic nephropathy): 8.6±0.6%
